Results: ChEMBL document CHEMBL1201862, “PubChem BioAssay data set” (2004)
Active and inactive are the calls of the source.

What was measured:
[1] = biological target: T1, Neuropeptide Y receptor type 1 (Homo sapiens, UniProt P25929); experiment: NPY-Y1 receptor antagonist potency, dose response, cell-based (AID 1277); assay type: functional
T1 sequence (P25929 whole entry): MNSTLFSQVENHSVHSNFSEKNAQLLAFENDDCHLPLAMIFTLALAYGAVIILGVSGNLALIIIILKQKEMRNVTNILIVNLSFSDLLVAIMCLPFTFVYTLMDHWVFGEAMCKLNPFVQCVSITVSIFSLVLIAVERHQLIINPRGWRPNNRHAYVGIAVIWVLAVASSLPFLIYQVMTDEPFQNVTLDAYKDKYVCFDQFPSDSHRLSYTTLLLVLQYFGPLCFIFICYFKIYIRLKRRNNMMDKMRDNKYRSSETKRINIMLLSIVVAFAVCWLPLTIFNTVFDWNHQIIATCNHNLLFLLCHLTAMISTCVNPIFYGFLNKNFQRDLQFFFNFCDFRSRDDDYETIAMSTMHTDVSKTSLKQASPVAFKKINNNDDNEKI

[2] = biological target: T2, Neuropeptide Y receptor type 2 (Homo sapiens, UniProt P49146); experiment: NPY-Y2 antagonist potency, selectivity check, dose response, counter-screen for NPY-Y1 antagonist project, cell-based (AID 1278); assay type: functional
T2 sequence (P49146 whole entry): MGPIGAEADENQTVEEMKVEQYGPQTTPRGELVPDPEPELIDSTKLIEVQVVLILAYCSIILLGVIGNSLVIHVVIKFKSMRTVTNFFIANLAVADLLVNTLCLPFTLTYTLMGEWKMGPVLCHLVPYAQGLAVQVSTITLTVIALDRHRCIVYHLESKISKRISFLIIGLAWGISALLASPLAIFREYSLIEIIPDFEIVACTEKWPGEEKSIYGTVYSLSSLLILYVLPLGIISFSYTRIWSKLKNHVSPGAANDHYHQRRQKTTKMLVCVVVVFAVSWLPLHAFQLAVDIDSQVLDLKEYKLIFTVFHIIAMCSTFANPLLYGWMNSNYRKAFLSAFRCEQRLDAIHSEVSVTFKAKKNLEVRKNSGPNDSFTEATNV

[3] = enhancers of respiration in Yfh1-depleted yeast, dose response, Friedreich's ataxia, plus single-dose screen (AID 1465); assay type: functional;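 further: yeast depleted of Yfh1p frataxin homolog grown on glycerol needing respiration; WST-1 tetrazolium dye reduction as measure of cellular dehydrogenase metabolic activity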
[4] = tested on: HEK293; experiment: Fluorescence-based counterscreen for potentiators or agonists of NPY-Y2: cell-based high-throughput dose response assay to identify inhibitors of cyclic nucleotide gated ion channel (CNGC) activity. In this assay, the parental HEK293 cell line transfected with a cyclic-nucleotide gated ion channel (CNGC)-based cAMP sensor is used to measure inhibition of isoproterenol-induced CNGC activity by test compound.; assay type: functional; details: Homo sapiens;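 further: stimulus is 1 µM isoproterenol at EC100 plus PDE inhibitor Ro 20-1724 at 25 µM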
[5] = biological target: T1, Neuropeptide Y receptor type 1; experiment: Fluorescence-based counterscreen for agonists of NPY-Y2: cell-based high-throughput dose response assay for agonists of NPY-Y1.; assay type: functional
[6] = biological target: T2, Neuropeptide Y receptor type 2; experiment: Fluorescence-based cell-based high-throughput dose response assay for agonists of NPY-Y2. [Related pubchem assays: 1703 (Screening assay (CNGC inhibitors).), 1359 (Screening assay (NPY-Y2 potentiators or agonists).), 1304 (Screening assay (NPY-Y1 potentiators or agonists).), 1710 (Screening assay (NPY-Y2 agonists).), 1791 (Summary AID.)]; assay type: functional
[7] = Luminescent dose response cell-based high throughput screening assay for inhibitors of the Janus kinase 2 mutant JAK2V617F. [Related pubchem assays: 1446 (Primary screen.), 1521 (Confirmation assay.), 1486 (Counter screen.)]; assay type: functional
[8] = tested on: INS1; experiment: beta cell apoptosis inhibitors, cytokine rescue, dose response, luminescence, retest (AID 449756); assay type: functional, cell-based; details: Rattus norvegicus;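 further: cell death triggered by IL-1 beta plus TNF-alpha plus IFN-gamma mixture; protective hits raise ATP signal compared with cytokine alone wells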
[9] = NIH-3T3 fibroblast cytotoxicity, dose response, cytotoxicity control, cell-based, fluorescence, Alamar Blue, secondary assay (AID 2327); assay type: functional;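 further: NIH-3T3 mouse fibroblasts cultured with fluconazole at 8 µg/mL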
[10] = inhibitors of intracellular T. cruzi replication, confirmation, NIH3T3 host cells, beta-gal luminescence (AID 2044); assay type: functional, cell-based;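 further: intracellular parasites grown in NIH/3T3 mouse fibroblasts as host cells; luminescent beta-galactosidase reporter signal from transgenic T. cruzi replicating inside host cells; inhibitors lower the luminescence signal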
[11] = C. albicans growth with fluconazole, confirmation, fluorescence, retest (AID 2467); assay type: functional, cell-based
[12] = biological target: T3, Protein RecA (Mycobacterium tuberculosis, UniProt P9WHJ3); experiment: Fluorescence Cell-Free Homogeneous Dose Retest to Identify Inhibitors of RecA-Intein Splicing Activity. [Related pubchem assays (depositor defined):AID2097, AID2223, AID489010, AID492950]; assay type: functional
T3 sequence (P9WHJ3 whole entry): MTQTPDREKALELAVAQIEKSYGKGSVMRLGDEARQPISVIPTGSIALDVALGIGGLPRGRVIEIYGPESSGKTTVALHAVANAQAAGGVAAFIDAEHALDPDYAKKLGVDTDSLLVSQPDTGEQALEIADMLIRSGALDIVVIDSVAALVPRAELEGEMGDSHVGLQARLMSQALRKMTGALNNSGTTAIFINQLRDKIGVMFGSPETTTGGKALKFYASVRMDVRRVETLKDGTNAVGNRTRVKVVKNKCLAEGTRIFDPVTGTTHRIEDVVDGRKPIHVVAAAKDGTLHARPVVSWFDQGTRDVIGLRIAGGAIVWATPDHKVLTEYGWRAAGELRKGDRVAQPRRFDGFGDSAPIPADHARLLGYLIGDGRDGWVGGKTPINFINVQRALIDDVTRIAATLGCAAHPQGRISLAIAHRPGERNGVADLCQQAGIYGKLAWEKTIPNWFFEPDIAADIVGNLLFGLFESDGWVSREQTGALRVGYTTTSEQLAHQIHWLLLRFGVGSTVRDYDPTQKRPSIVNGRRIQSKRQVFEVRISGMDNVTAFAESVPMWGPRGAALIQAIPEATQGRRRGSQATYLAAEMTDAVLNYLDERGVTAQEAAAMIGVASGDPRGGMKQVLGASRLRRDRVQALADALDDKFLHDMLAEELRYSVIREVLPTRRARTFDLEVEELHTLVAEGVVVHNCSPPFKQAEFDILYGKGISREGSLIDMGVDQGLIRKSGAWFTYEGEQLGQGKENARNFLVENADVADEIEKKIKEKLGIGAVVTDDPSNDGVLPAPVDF

[13] = tested on: HeLa; experiment: Cytotoxicity counterscreen assay for transcriptional activators of heat shock protein 70 (Hsp70). [Related pubchem assays: 1203, 1252 ]; assay type: functional; details: Homo sapiens;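 further: cells exposed to compound for 16 hours before readout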
[14] = biological target: Sphingosine 1-phosphate receptor 2 (Homo sapiens, UniProt O95136); experiment: Dose Response Cell Based Assay for Antagonists of the S1P2 Receptor. [Related pubchem assays: 856, 736 ]; assay type: functional
Sphingosine 1-phosphate receptor 2, sequence (O95136 whole entry): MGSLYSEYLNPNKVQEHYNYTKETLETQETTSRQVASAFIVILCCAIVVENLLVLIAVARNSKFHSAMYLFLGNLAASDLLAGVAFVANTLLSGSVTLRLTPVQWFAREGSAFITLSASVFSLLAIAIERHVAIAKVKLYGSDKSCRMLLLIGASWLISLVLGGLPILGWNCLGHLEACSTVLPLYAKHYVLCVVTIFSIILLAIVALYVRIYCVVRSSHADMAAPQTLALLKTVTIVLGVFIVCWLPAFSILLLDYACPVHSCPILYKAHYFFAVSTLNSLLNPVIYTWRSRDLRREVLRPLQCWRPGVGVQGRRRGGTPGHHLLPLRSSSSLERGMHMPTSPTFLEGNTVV

[15] = biological target: T4, Replicative DNA helicase DnaB (Mycobacterium tuberculosis, UniProt P9WMR3); experiment: DnaB intein splicing inhibitors, dose response, biochemical, cell-free fluorescence (AID 449749); assay type: functional
T4 sequence (P9WMR3 whole entry): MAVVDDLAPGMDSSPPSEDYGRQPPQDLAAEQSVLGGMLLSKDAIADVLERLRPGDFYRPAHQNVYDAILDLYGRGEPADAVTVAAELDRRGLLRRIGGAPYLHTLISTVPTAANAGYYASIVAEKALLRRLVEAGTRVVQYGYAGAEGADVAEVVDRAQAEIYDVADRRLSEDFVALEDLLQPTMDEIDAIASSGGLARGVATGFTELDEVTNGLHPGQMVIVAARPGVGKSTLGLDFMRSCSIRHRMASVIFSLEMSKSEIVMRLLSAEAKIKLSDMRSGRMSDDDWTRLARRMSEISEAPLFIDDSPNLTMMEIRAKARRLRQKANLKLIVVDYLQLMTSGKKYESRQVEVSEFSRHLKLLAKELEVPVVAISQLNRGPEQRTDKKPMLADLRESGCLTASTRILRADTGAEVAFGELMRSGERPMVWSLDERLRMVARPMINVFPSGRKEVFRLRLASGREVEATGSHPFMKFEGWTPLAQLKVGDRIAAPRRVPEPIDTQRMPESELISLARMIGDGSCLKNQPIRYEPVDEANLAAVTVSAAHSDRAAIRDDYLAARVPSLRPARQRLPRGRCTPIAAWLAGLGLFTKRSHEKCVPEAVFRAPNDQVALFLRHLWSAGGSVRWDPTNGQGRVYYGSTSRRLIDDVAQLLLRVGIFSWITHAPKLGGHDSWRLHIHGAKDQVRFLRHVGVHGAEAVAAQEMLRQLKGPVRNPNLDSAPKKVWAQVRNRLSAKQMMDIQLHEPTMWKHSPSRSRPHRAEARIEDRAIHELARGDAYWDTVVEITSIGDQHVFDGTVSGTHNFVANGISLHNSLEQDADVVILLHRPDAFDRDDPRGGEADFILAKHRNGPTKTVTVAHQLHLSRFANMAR

[16] = cytotoxicity toward NIH3T3 fibroblasts, dose response, counter-screen, cell-based, ATP luminescence, mouse fibroblasts (AID 2010); assay type: functional;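 further: cells exposed to compound for about 90 hours before reading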
[17] = biological target: Dual specificity tyrosine-phosphorylation-regulated kinase 1A (Rattus norvegicus, UniProt Q63470); assay type: biochemical, Homo sapiens
[18] = Luminescence-based counterscreen assay for KLF5 inhibitors: dose response cell-based high throughput screening assay to identify cytotoxic compounds using the IEC-6 intestinal epithelial cell line. [Related pubchem assays: 1700 (Primary screen.), 1834 (Confirmation screen.), 1858 (Summary AID.), 1905 (Counterscreen.)]; assay type: functional
[19] = tested on: BJ; experiment: cytotoxicity toward BJ-TERT fibroblasts, dose response, cell-based, RAS-independent, luminescence (AID 1933); assay type: functional; details: Homo sapiens
[20] = tested on: BJ; experiment: cells; assay type: functional, cell-based; details: Homo sapiens
[21] = tested on: BJ; experiment: cytotoxicity toward BJ-TERT-LT-ST fibroblasts, dose response, cell-based, RAS-independent, luminescence (AID 1935); assay type: functional; details: Homo sapiens;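 further: BJ fibroblasts immortalized with TERT plus LT and ST oncogenes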
[22] = cytotoxicity toward DRD oncogenic fibroblasts, dose response, cell-based, non-viral oncogenic, luminescence (AID 1934); assay type: functional; details: Homo sapiens
[23] = biological target: Induced myeloid leukemia cell differentiation protein Mcl-1 (Homo sapiens, UniProt Q07820); experiment: MCL1-BIM BH3 interaction inhibitors, dose response, biochemical, fluorescence polarization, BIM-BH3 peptide, 1536-well (AID 2217)
Induced myeloid leukemia cell differentiation protein Mcl-1, sequence (Q07820 whole entry): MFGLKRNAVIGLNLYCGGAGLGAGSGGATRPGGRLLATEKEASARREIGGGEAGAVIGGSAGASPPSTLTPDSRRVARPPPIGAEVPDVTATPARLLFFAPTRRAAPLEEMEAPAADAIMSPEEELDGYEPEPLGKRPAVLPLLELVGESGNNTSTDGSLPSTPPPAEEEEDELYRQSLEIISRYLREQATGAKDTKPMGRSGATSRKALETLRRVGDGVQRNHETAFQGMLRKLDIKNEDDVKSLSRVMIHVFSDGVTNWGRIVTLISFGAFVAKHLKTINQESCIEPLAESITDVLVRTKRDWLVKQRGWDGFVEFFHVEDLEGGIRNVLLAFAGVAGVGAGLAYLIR

[24] = biological target: Bcl-2-like protein 1 (Homo sapiens, UniProt Q07817); experiment: BCL-XL inhibitors, dose response, selectivity assay for MCL1 inhibitor project, biochemical, fluorescence polarization, 1536-well (AID 2218)
Bcl-2-like protein 1, sequence (Q07817 whole entry): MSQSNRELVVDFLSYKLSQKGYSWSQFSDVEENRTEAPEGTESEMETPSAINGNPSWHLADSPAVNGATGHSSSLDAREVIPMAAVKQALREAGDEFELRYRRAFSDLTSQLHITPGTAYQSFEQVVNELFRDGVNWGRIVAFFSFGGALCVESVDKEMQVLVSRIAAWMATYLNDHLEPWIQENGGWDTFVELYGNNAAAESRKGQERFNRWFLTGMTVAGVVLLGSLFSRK

[25] = biological target: Dual specificity protein phosphatase 3 (Homo sapiens, UniProt P51452); experiment: VHR phosphatase inhibition, dose response, selectivity assay for STEP inhibitor project, biochemical (AID 602374); assay type: functional; details: read-out: IC50_Mean
Dual specificity protein phosphatase 3, sequence (P51452 whole entry): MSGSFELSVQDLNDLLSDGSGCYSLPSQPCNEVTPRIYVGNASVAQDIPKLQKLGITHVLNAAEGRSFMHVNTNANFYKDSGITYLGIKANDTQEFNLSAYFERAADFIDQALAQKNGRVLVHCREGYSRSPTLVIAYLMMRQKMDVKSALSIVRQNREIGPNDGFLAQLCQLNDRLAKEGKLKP

[26] = biological target: T5, Small ubiquitin-related modifier 1 (Homo sapiens, UniProt P63165); experiment: inhibitors of SUMO1 peptide binding, dose response, biochemical, fluorescence polarization, uHTS hits (AID 624382); assay type: functional; details: read-out: IC50_Mean
T5 sequence (P63165 whole entry): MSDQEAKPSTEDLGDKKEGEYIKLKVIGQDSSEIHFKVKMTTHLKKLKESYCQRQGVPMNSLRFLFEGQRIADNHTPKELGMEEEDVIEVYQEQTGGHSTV

[27] = biological target: Tyrosine-protein phosphatase non-receptor type 11 (Homo sapiens, UniProt Q06124); experiment: SHP2 phosphatase inhibition, dose response, selectivity assay for STEP inhibitor project, biochemical (AID 602367); assay type: functional; details: read-out: IC50_Mean
Tyrosine-protein phosphatase non-receptor type 11, sequence (Q06124 whole entry): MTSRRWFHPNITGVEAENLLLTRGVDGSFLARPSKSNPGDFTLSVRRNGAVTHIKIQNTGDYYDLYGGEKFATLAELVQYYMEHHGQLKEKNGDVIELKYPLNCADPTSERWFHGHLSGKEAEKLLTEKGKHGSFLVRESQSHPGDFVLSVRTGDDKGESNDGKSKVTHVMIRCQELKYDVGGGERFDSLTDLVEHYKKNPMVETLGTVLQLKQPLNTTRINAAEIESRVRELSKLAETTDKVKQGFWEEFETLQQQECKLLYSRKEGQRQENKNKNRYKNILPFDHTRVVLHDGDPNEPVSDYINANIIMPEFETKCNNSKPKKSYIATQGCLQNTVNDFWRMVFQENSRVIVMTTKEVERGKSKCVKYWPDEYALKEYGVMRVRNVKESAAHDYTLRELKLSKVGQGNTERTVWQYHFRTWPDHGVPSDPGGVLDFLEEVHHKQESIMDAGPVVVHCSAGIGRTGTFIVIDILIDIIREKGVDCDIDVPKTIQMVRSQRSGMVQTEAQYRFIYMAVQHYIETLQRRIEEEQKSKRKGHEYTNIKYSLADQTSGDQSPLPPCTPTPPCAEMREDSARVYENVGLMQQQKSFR

[28] = biological target: Tyrosine-protein phosphatase non-receptor type 5 (Homo sapiens, UniProt P54829); experiment: STEP phosphatase inhibitors, confirmation, biochemical, fluorescence intensity, uHTS hits (AID 602372); assay type: functional; details: read-out: IC50_Mean
Tyrosine-protein phosphatase non-receptor type 5, sequence (P54829 whole entry): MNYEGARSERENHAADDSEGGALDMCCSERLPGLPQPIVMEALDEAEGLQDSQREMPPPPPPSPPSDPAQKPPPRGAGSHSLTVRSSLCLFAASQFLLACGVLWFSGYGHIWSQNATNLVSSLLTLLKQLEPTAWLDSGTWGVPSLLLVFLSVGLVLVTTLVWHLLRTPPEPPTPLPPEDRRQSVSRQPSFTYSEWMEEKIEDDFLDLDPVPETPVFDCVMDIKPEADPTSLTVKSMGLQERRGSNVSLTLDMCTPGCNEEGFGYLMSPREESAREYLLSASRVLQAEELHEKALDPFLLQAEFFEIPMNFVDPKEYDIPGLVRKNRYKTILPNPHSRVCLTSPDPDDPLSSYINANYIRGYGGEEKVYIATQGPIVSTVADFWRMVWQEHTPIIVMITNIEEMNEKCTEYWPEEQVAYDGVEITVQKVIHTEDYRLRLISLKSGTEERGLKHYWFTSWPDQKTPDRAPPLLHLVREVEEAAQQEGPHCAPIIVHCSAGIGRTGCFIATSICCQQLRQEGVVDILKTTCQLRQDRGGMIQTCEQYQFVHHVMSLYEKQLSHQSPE

[29] = biological target: T5, Small ubiquitin-related modifier 1; experiment: inhibitors of SUMO1 partner interactions, dose response, biochemical, FRET (AID 624383); assay type: functional; details: read-out: IC50_Mean

With `CCc1cccc(CC)c1NC(=O)C(NS(=O)(=O)c1cccs1)c1ccccc1` (centres undefined) the IC50 [1] was > 35 µM (not active) and the IC50 [2] was > 35 µM (not active).
With `COc1ccc2ccccc2c1C(=O)/C=C\c1ccoc1` the EC50 [3] was > 100 µM (active).
For `COc1ccc(N2CCN(CC(O)COc3ccccc3[N+](=O)[O-])CC2)cc1` (centres undefined), the EC50 [4] was 2.43 µM (active), the EC50 [5] was 9.49 µM (active) and the EC50 [6] was 12.3 µM (not active).
For `O=C(OCn1ncc(Cl)c(Cl)c1=O)c1ccc(F)cc1`, the IC50 [7] was 0.351 µM (active), the AC50 [8] was 7.34 µM (active) and the EC50 [9] was 1.85 µM (inconclusive). The EC50 [10] was 1.16 µM (active), the EC50 [11] was > 38 µM (not active) and the EC50 [12] was 0.938 µM (active). For the same compound, the CC50 [13] was 21.7 µM (not active), the IC50 [14] was 3.76 µM (active) and the AC50 [15] was 5.07 µM (active). The EC50 [16] was 1.04 µM (active).
With `COc1ccc2[nH]c(C(=O)N/N=C/c3ccc(OC)c(O)c3)cc2c1` the AC50 [17] was 1.04 µM (active), the IC50 [18] was 20.4 µM (not active) and the EC50 [19] was 1.89 µM (active). For the same compound, the EC50 [20] was 59.5 µM (inconclusive), the EC50 [21] was 50.5 µM (inconclusive) and the EC50 [22] was 41.7 µM (inconclusive).
In the case of `O=C(N/N=C/c1ccncc1)c1cccc(S(=O)(=O)Nc2ccc(Cl)cc2)c1`, the IC50 [23] is reported as 11.3 µM (not active), the IC50 [24] is reported as > 109 µM (not active) and the IC50 [25] is reported as 2.87 µM (active). For the same compound, the IC50 [26] was > 66.6 µM (inactive), the IC50 [27] was 2.6 µM (active) and the IC50 [28] was 14.7 µM (active). The IC50 [29] was 10.3 µM (active).
